The target in assay [1] is T1, Recombinant STAT3 protein (STAT3(G127-I722)) (Homo sapiens, UniProt P40763).
T1 construct: Recombinant STAT3 protein (STAT3(G127-I722))
Description: STAT3 Fluorescence Polarization (FP) Assay. The conditions noted are these: STAT3(G127-I722) 25 nM, probe 5-FAM-GpYLPQTV-NH2 2 nM, 45-minute incubation. Type of assay: binding. In short, it runs like this:
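STAT3(G127-I722), 25 nM, was mixed with 2 nM 5-FAM-GpYLPQTV-NH2 probe in HEPES pH 7.4 buffer with 1% DMSO and serially diluted compound. FP (mP) was read after 45 min at room temperature. IC50 came from nonlinear regression.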

Assay [2] has as its target T2, Recombinant STAT6 protein (STAT6(W123-T658)) (Homo sapiens, UniProt P42226).
T2 construct: Recombinant STAT6 protein (STAT6(W123-T658))
T2 sequence (P42226 123-658): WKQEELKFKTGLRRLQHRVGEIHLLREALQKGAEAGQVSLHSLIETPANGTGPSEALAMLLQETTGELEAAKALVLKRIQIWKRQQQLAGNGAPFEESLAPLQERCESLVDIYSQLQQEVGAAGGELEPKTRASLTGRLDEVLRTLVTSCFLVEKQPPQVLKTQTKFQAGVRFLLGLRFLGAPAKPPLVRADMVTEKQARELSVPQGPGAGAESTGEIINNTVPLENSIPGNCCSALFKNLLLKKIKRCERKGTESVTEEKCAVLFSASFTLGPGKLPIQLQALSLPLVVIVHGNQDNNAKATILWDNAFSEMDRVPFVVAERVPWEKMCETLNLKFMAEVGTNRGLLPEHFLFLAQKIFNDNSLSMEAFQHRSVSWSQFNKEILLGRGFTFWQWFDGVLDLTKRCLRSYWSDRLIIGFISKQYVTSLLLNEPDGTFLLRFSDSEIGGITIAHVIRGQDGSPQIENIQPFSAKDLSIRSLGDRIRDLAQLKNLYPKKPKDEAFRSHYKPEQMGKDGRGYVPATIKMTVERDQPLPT
Description: STAT6 Fluorescence Polarization (FP) Assay. The conditions noted are these: STAT6(W123-T658) 250 nM, probe 5-FAM-ApYKPFQDLI-NH2 2 nM, 45-minute incubation. Type of assay: binding. In short, it runs like this:
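Displacement of a fluorescent phosphotyrosine peptide (5-FAM-ApYKPFQDLI-NH2, 2 nM) from STAT6(W123-T658) (250 nM), 1% DMSO, pH 7.4 HEPES buffer. After 45 min at room temperature, polarization (mP) was plotted versus log compound concentration and fitted by nonlinear regression to give IC50.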

A word on the IC50: it is the concentration at which inhibition is half-maximal.

Bounds are passed on as bounds.

T1 sequence (P40763 127-722): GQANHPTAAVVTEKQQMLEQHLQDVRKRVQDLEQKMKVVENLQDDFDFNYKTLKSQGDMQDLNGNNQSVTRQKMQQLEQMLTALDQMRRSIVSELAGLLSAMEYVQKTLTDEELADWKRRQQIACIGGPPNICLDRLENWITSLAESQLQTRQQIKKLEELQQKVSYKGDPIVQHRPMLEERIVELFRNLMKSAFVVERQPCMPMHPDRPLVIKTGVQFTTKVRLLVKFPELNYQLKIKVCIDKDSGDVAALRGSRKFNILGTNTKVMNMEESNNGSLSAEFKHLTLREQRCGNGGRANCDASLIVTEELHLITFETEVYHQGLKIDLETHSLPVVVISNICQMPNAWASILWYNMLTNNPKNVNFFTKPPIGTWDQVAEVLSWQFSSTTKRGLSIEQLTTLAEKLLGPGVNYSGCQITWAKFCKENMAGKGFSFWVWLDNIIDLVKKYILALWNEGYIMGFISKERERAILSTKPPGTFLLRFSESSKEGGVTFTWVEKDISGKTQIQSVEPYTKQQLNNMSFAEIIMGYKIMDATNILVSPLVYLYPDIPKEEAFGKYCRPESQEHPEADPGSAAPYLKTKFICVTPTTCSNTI

With `CN(C(=O)[C@@H]1CC[C@@H]2CCN(C(=O)CCc3ccccc3)C[C@H](NC(=O)c3cc4cc(C(F)(F)P(=O)(O)O)ccc4[nH]3)C(=O)N21)c1ccccc1` [Compound 253, (difluoro(2-(((5S,8S,10aR)-8-(methyl(phenyl)carbamoyl)-6-oxo-3-(3-phenylpropanoyl)decahydropyrrolo[1,2-a][1,5]diazocin-5-yl)carbamoyl)-1H-indol-5-yl)methyl)phosphonic acid], the values for the IC50 in assay [1] and in assay [2] were 1000 to 10000 nM and at most 300 nM, respectively.

With `C[C@@H](C(=O)N1CC[C@H]2CC[C@@H](C(=O)Nc3ccc(-c4ccccc4)cc3)N2C(=O)[C@@H](NC(=O)c2cc3cc(C(F)(F)P(=O)(O)O)ccc3[nH]2)C1)c1ccccc1` [Compound 254, ((2-(((5S,8S,10aR)-8-([1,1′-biphenyl]-4-ylcarbamoyl)-6-oxo-3-((R)-2-phenylpropanoyl)decahydropyrrolo[1,2-a][1,5]diazocin-5-yl)carbamoyl)-1H-indol-5-yl)difluoromethyl)phosphonic acid], the values for the IC50 in assay [1] and in assay [2] were 1000 to 10000 nM and 300 to 3000 nM, respectively.

In the case of `C[C@H](C(=O)N1CC[C@H]2CC[C@@H](C(=O)Nc3ccc(-c4ccccc4)cc3)N2C(=O)[C@@H](NC(=O)c2cc3cc(C(F)(F)P(=O)(O)O)ccc3[nH]2)C1)c1ccccc1` [Compound 255, ((2-(((5S,8S,10aR)-8-([1,1′-biphenyl]-4-ylcarbamoyl)-6-oxo-3-((S)-2-phenylpropanoyl)decahydropyrrolo[1,2-a][1,5]diazocin-5-yl)carbamoyl)-1H-indol-5-yl)difluoromethyl)phosphonic acid], the results for the IC50 in assay [1] and in assay [2] were 100 to 1000 nM and 300 to 3000 nM, respectively.

As for `O=C(N[C@H]1CNCC[C@H]2CC[C@@H](C(=O)N3CC(C(=O)N4CCOCC4)C3)N2C1=O)c1cc2cc(C(F)(F)P(=O)(O)O)ccc2s1` [Compound 256, (difluoro(2-(((5S,8S,10aR)-8-(3-(morpholine-4-carbonyl)azetidine-1-carbonyl)-6-oxodecahydropyrrolo[1,2-a][1,5]diazocin-5-yl)carbamoyl)benzo[b]thiophen-5-yl)methyl)phosphonic acid], the IC50 was 100 to 1000 nM in assay [1] and 3000 to 30000 nM in assay [2].

For `CC(C)CN1CC[C@H]2CC[C@@H](C(=O)N3CC(C(=O)N4CCOCC4)C3)N2C(=O)[C@@H](NC(=O)c2cc3cc(C(F)(F)P(=O)(O)O)ccc3s2)C1` [Compound 257, (difluoro(2-(((5S,8S,10aR)-3-isobutyl-8-(3-(morpholine-4-carbonyl)azetidine-1-carbonyl)-6-oxodecahydropyrrolo[1,2-a][1,5]diazocin-5-yl)carbamoyl)benzo[b]thiophen-5-yl)methyl)phosphonic acid], the IC50 lay within 100 to 1000 nM in assay [1] and 3000 to 30000 nM in assay [2].

For `C[C@@H](Cc1ccccc1)C(=O)N1CC[C@H]2CC[C@@H](C(=O)N3CCCC3)N2C(=O)[C@@H](NC(=O)c2cc3cc(C(F)(F)P(=O)(O)O)ccc3s2)C1` [Compound 258, (difluoro(2-(((5S,8S,10aR)-3-((S)-2-methyl-3-phenylpropanoyl)-6-oxo-8-(pyrrolidine-1-carbonyl)decahydropyrrolo[1,2-a][1,5]diazocin-5-yl)carbamoyl)benzo[b]thiophen-5-yl)methyl)phosphonic acid], the IC50 in assay [1] was 1000 to 10000 nM; in assay [2], 300 to 3000 nM.

`C[C@H](Cc1ccccc1)C(=O)N1CC[C@H]2CC[C@@H](C(=O)N3CCCC3)N2C(=O)[C@@H](NC(=O)c2cc3cc(C(F)(F)P(=O)(O)O)ccc3s2)C1` [Compound 259, (difluoro(2-(((5S,8S,10aR)-3-((R)-2-methyl-3-phenylpropanoyl)-6-oxo-8-(pyrrolidine-1-carbonyl)decahydropyrrolo[1,2-a][1,5]diazocin-5-yl)carbamoyl)benzo[b]thiophen-5-yl)methyl)phosphonic acid]: the IC50 lay in the range of 100 to 1000 nM in assay [1] and 300 to 3000 nM in assay [2].

On to `C[C@H](CC(=O)N1CC[C@H]2CC[C@@H](C(=O)N3CCCC3)N2C(=O)[C@@H](NC(=O)c2cc3cc(C(F)(F)P(=O)(O)O)ccc3s2)C1)c1ccccc1` [Compound 260, (difluoro(2-(((5S,8S,10aR)-6-oxo-3-((R)-3-phenylbutanoyl)-8-(pyrrolidine-1-carbonyl)decahydropyrrolo[1,2-a][1,5]diazocin-5-yl)carbamoyl)benzo[b]thiophen-5-yl)methyl)phosphonic acid], for which the IC50 in assay [1] is 100 to 1000 nM; in assay [2], 300 to 3000 nM.

Consider `C[C@@H](CC(=O)N1CC[C@H]2CC[C@@H](C(=O)N3CCCC3)N2C(=O)[C@@H](NC(=O)c2cc3cc(C(F)(F)P(=O)(O)O)ccc3s2)C1)c1ccccc1` [Compound 261, (difluoro(2-(((5S,8S,10aR)-6-oxo-3-((S)-3-phenylbutanoyl)-8-(pyrrolidine-1-carbonyl)decahydropyrrolo[1,2-a][1,5]diazocin-5-yl)carbamoyl)benzo[b]thiophen-5-yl)methyl)phosphonic acid], for which the IC50 in assay [1] lay in the range of 100 to 1000 nM; in assay [2] it was 300 to 3000 nM.

Take `COC(=O)N1CC[C@H]2CC[C@@H](C(=O)N3CCCC3)N2C(=O)[C@@H](NC(=O)c2cc3cc(C(F)(F)P(=O)(O)O)ccc3s2)C1` [Compound 262, (difluoro(2-(((5S,8S,10aR)-3-(methoxycarbonyl)-6-oxo-8-(pyrrolidine-1-carbonyl)decahydropyrrolo[1,2-a][1,5]diazocin-5-yl)carbamoyl)benzo[b]thiophen-5-yl)methyl)phosphonic acid]: the IC50 in assay [1] was in the range of 1000 to 10000 nM; in assay [2] it was 300 to 3000 nM.

With `O=C(N[C@H]1CN(CC(F)F)CC[C@H]2CC[C@@H](C(=O)N3CC(C(=O)N4CCOCC4)C3)N2C1=O)c1cc2cc(C(F)(F)P(=O)(O)O)ccc2s1` [Compound 263, ((2-(((5S,8S,10aR)-3-(2,2-difluoroethyl)-8-(3-(morpholine-4-carbonyl)azetidine-1-carbonyl)-6-oxodecahydropyrrolo[1,2-a][1,5]diazocin-5-yl)carbamoyl)benzo[b]thiophen-5-yl)difluoromethyl)phosphonic acid], the IC50 in assay [1] is at most 100 nM; in assay [2], 3000 to 30000 nM.

With `CN(CC(C)(C)C#N)C(=O)[C@@H]1CC[C@@H]2CCN(CC(F)F)C[C@H](NC(=O)c3cc4cc(C(F)(F)P(=O)(O)O)ccc4s3)C(=O)N21` [Compound 264, ((2-(((5S,8S,10aR)-8-((2-cyano-2-methylpropyl)(methyl)carbamoyl)-3-(2,2-difluoroethyl)-6-oxodecahydropyrrolo[1,2-a][1,5]diazocin-5-yl)carbamoyl)benzo[b]thiophen-5-yl)difluoromethyl)phosphonic acid], the half-maximal inhibitory concentration (IC50) in assay [1] is 1000 to 10000 nM; in assay [2] it was 300 to 3000 nM.

On to `O=C(N[C@H]1CN(C(=O)Cc2ccccc2)CC[C@H]2CC[C@@H](C(=O)Nc3ccccc3-c3ccccc3)N2C1=O)c1cc2cc(C(F)(F)P(=O)(O)O)ccc2[nH]1` [Compound 265, ((2-(((5S,8S,10aR)-8-([1,1′-biphenyl]-2-ylcarbamoyl)-6-oxo-3-(2-phenylacetyl)decahydropyrrolo[1,2-a][1,5]diazocin-5-yl)carbamoyl)-1H-indol-5-yl)difluoromethyl)phosphonic acid], for which the IC50 fell in the range of 1000 to 10000 nM in assay [1] and 300 to 3000 nM in assay [2].

Turning to `N#Cc1ccccc1-c1ccc(NC(=O)[C@@H]2CC[C@@H]3CCN(C(=O)Cc4ccccc4)C[C@H](NC(=O)c4cc5cc(C(F)(F)P(=O)(O)O)ccc5[nH]4)C(=O)N32)cc1` [Compound 266, ((2-(((5S,8S,10aR)-8-((2′-cyano-[1,1′-biphenyl]-4-yl)carbamoyl)-6-oxo-3-(2-phenylacetyl)decahydropyrrolo[1,2-a][1,5]diazocin-5-yl)carbamoyl)-1H-indol-5-yl)difluoromethyl)phosphonic acid], the IC50 in assay [1] is 100 to 1000 nM; in assay [2], at most 300 nM.

For the compound `O=C(N[C@H]1CN(S(=O)(=O)CCc2ccccc2)CC[C@H]2CC[C@@H](C(=O)Nc3ccc(-c4ccccc4)cc3)N2C1=O)c1cc2cc(C(F)(F)P(=O)(O)O)ccc2s1` [Compound 268, ((2-(((5S,8S,10aR)-8-([1,1′-biphenyl]-4-ylcarbamoyl)-6-oxo-3-(phenethylsulfonyl)decahydropyrrolo[1,2-a][1,5]diazocin-5-yl)carbamoyl)benzo[b]thiophen-5-yl)difluoromethyl)phosphonic acid], the results for the IC50 in assay [1] and in assay [2] were 1000 to 10000 nM and 300 to 3000 nM, respectively.

Values taken from US20250179103A1, “6-OXODECAHYDROPYRROLO[1,2-A][1,5]DIAZOCINE AND 6-OXODECAHYDRO-4H-PYRROLO[2,1-D][1,5]THIAZOCINE DERIVATIVES AS STAT3 AND STAT6 MODULATORS FOR THE TREATMENT OF CANCER AND INFLAMMATORY CONDITIONS” (Recludix Pharma, Inc., priority 2022, published 2025).
